Data as given in patent US20160363580A1, “Methods of Metabolic Kinetic Phenotyping and Uses Thereof” (The Texas A&M University System, priority 2015, published 2016).

Test: Pulse tracer protocol (bolus L-[15N]-Phe), two compartmental model of Phe kinetics
Assay type: in vivo, pigs
Conditions: for EC Phe pool (extracellular Phe pool, Q1) / Flux of Phe between intra- and extracellular pool (F12, F21) / Frac. irr. loss (fractional irreversible loss of Phe from the intracellular pool, k02) / IC Phe pool (intracellular Phe pool, Q2) / IC Phe release (fractional intracellular release to extracellular pool, k12) / IC Phe uptake (fractional intracellular uptake from extracellular pool, k21) / Irr. loss (irreversible loss of Phe from the intracellular pool, F02): mean±SEM; for Q1 plasma pool size, mean value: SAAM II fit
Description: Female Yorkshire cross/domestic pigs (20-25 kg BW) were used in the experimental studies. The pigs were housed in steel pens (2 m×3 m) in a controlled housing facility with large animal cubicle at room temperature 22-24° C. with 12 hours light-dark cycle. The pigs were fed with standardized food 1 kg/day (Harlan Teklad Vegetarian Pig/Sow Grower)) and provided water ad libitum.
Animals received catheters and a jejunal stoma during a surgical procedure. During midline laparotomy, catheters were placed into the abdominal aorta for blood sampling, and in the caval vein for administering post-surgery medication and experiment related tracer infusions. A second arterial catheter was placed to monitor mean arterial blood pressure (MAP). A Swan ganz catheter (5 Fr, #132F5, Edwards life sciences, Irvine, Calif., USA) was placed via the right jugular vein to monitor mean pulmonary blood pressure (MPAP). Both preoperative and postoperative cares were standardized. During the recovery period (7-10 days) animals were accustomed to a small movable cage (0.9×0.5×0.3 m). The experiments were performed in this cage on awake animals. This study was approved by the animal experiment ethics committee of University of Arkansas Medical Sciences.
For the induction of sepsis, a live Pseudomonas aeruginosa (PM) human strain is used (IRS 12-4-4, Shriners burns institute, University of Texas Medical Branch, Galveston). Originally, this PM strain was isolated from a burnt patient at Brook Army Medical Center in San Antonio, Tex. Based on pilot virulence experiment, 10^9 Colony Forming Units per hour (CFU/hour) in a volume of 1 ml 0.9% NaCl solution was needed to obtain similar cardiovascular responses and hemodynamic variables with characteristics of severe hyperdynamic sepsis. Hemodynamics was continuously monitored to ensure that the hyperdynamic state was kept in the expected ranges for severe sepsis (body temp increase of 2-3° C., respiratory rate increased, MPAP increased but <35 mmHg, heart rate increased but <200 BPM).
The experiment started after a recovery period of 7-10 days. Four hours after the last food intake (half of the daily amount: 0.5 kg), animals were selected from the Sepsis group or the Healthy group in a randomized fashion. […] At T=0 h, sepsis was induced to the sepsis group by continuous infusion of Pseudomonas aeruginosa (PM, 10^9 CFU/ml/hour), while the Healthy group received an equal volume of 0.9% NaCl solution. Fluid resuscitation (30 ml/kg bw/hour) was also started at T=0 h and hemodynamics were monitored continuously. The results for the primed-continuous tracer protocol (PC) and the pulse tracer protocol were compared between 17 and 18 hours after the start of Pseudomonas aeruginosa. At t=18 h, the pigs were euthanized with 125 mg/k pentobarbital sodium and 16 mg phenytoin sodium (Euthanasol®).
Two stable isotopes of Phe: L-[ring-^13C6]-Phe and L-[^15N]-Phe (Cambridge Isotopes, Andover, Mass.) were used as tracers to study whole body rate of appearances of Phe (WbRa) with two tracer infusion protocols. Phe has been used to determine whole body protein breakdown. Previously studies were conducted based on the prime amount and tracer infusion rates. For the primed-continuous infusion protocol (PC), L-[ring-^13C6]-Phe was used. The prime (1.58 μmol/kg bw) and infusion (4.32 μmol/kg bw/hour) was given respectively in a volume of 2 ml/kg bw and 2 ml/kg bw/hour. It started 12 hours after the start of Pseudomonas aeruginosa, which is also 5 hours before the pulse protocol (PULSE). The L-[^15N]-Phe (26.3 μmol/kg bw in a volume 0.5 ml/kg bw) was used for the pulse protocol. All tracers are given via the central caval vein catheter.
Blood samples were taken and directly cooled on ice. The blood samples were processed within one hour. For amino acid concentration and enrichment analysis, heparinized blood was centrifuged at 4° C., 8000 G for 5 minutes. […]

Compound: N[C@@H](Cc1ccccc1)C(=O)O [Phe, phenylalanine]
- k02 proportionality constant, mean value (Healthy pigs): 0.033 min⁻¹
- k12 proportionality constant, mean value (Healthy pigs): 0.051 min⁻¹
- k21 proportionality constant, mean value (Healthy pigs): 0.115 min⁻¹
- EC Phe pool (extracellular Phe pool, Q1) (Healthy pigs n=9): 44 ± 2.2 μmol/kg BW
- Flux of Phe between intra- and extracellular pool (F12, F21) (Healthy pigs n=9): 5.02 ± 0.40 μmol/kg BW/min
- Frac. irr. loss (fractional irreversible loss of Phe from the intracellular pool, k02) (Healthy pigs n=9): 3.33 ± 0.21 %/min
- IC Phe pool (intracellular Phe pool, Q2) (Healthy pigs n=9): 105 ± 8.0 μmol/kg BW
- IC Phe release (fractional intracellular release to extracellular pool, k12) (Healthy pigs n=9): 5.09 ± 0.69 %/min
- IC Phe uptake (fractional intracellular uptake from extracellular pool, k21) (Healthy pigs n=9): 11.5 ± 0.71 %/min
- Irr. loss (irreversible loss of Phe from the intracellular pool, F02) (Healthy pigs n=9): 3.38 ± 0.10 μmol/kg BW/min
- Q1 plasma pool size, mean value (Healthy pigs): 1121 µmol
- k02 proportionality constant, mean value (Sepsis pigs): 0.028 min⁻¹
- k12 proportionality constant, mean value (Sepsis pigs): 0.044 min⁻¹
- k21 proportionality constant, mean value (Sepsis pigs): 0.105 min⁻¹
- EC Phe pool (extracellular Phe pool, Q1) (Sepsis pigs n=13): 63 ± 5.5 μmol/kg BW
- Flux of Phe between intra- and extracellular pool (F12, F21) (Sepsis pigs n=13): 6.86 ± 0.42 μmol/kg BW/min
- Frac. irr. loss (fractional irreversible loss of Phe from the intracellular pool, k02) (Sepsis pigs n=13): 2.83 ± 0.15 %/min
- IC Phe pool (intracellular Phe pool, Q2) (Sepsis pigs n=13): 157 ± 8.2 μmol/kg BW
- IC Phe release (fractional intracellular release to extracellular pool, k12) (Sepsis pigs n=13): 4.43 ± 0.25 %/min
- IC Phe uptake (fractional intracellular uptake from extracellular pool, k21) (Sepsis pigs n=13): 10.6 ± 0.76 %/min
- Irr. loss (irreversible loss of Phe from the intracellular pool, F02) (Sepsis pigs n=13): 4.33 ± 0.16 μmol/kg BW/min
- Q1 plasma pool size, mean value (Sepsis pigs): 1655 µmol
- intracellular pool relative to extracellular pool (pigs): 2.2 times
